Values quoted from earlier work in paper PMC6601333 (Biochemical and biophysical research communications, 2019).

| Structure (SMILES) | inhibition of HIV-2 PR, fold worse than for HIV-1 PR (HIV-2 PR; relative to HIV-1 PR) [fold] | inhibition of HIV-1 PR (in words) (wild type HIV-1 PR) | inhibition of HIV-2 PR (in words) (HIV-2 PR) |
| --- | --- | --- | --- |
| CC(C)CN(C[C@@H](O)[C@H](Cc1ccccc1)NC(=O)O[C@H]1CCOC1)S(=O)(=O)c1ccc(N)cc1 [APV, amprenavir] | 19 |  |  |
| CC(C)CN(C[C@@H](O)[C@H](Cc1ccccc1)NC(=O)O[C@H]1CO[C@H]2OCC[C@H]21)S(=O)(=O)c1ccc(N)cc1 [DRV, darunavir] |  | effective inhibitors | effective inhibitors |
| CC(C)(C)NC(=O)[C@@H]1C[C@@H]2CCCC[C@@H]2CN1C[C@@H](O)[C@H](Cc1ccccc1)NC(=O)[C@H](CC(N)=O)NC(=O)c1ccc2ccccc2n1 [SQV, saquinavir] |  | effective inhibitors | effective inhibitors |
